Experiments:
MCF7 = test: Antiproliferative activity against human MCF7 cells by MTT assay; format: functional, cell-based
JIMT-1 = test: Antiproliferative activity against human JIMT1 cells by MTT assay; format: functional, cell-based
U-87 MG = test: Antiproliferative activity against human U87 cells by MTT assay; format: functional, cell-based, U-87MG ATCC
HeLa = test: Antiproliferative activity against human HeLa cells by MTT assay; format: functional, cell-based
Caco-2 = test: Antiproliferative activity against human Caco2 cells by MTT assay; format: functional, cell-based
HT-29 = test: Antiproliferative activity against human HT-29 cells by MTT assay; format: functional, cell-based
HGC-27 = test: Antiproliferative activity against human HGC27 cells by MTT assay; format: functional, cell-based
MDA-MB-231 = test: Antiproliferative activity against human MDA-MB-231 cells by MTT assay; format: functional, cell-based

Compound | IC50 (MCF7) [µM] | IC50 (U-87 MG) [µM] | IC50 (HeLa) [µM] | IC50 (Caco-2) [µM] | IC50 (HT-29) [µM] | IC50 (MDA-MB-231) [µM] | IC50 (JIMT-1) [µM] | IC50 (HGC-27) [µM]
CC[C@@H](C(=O)[C@@H](C)[C@@H](O)[C@H](C)[C@@H]1O[C@@H]([C@@H](CC)C(=O)O)CC[C@@H]1C)[C@H]1O[C@]2(C=C[C@@H](OC(=O)NC(C)(C)C)[C@]3(CC[C@@](C)([C@H]4CC[C@](O)(CC)[C@H](C)O4)O3)O2)[C@H](C)C[C@@H]1C | 0.42 | – | – | – | – | – | 0.38 | –
CC[C@@H](C(=O)[C@@H](C)[C@@H](O)[C@H](C)[C@@H]1O[C@@H]([C@@H](CC)C(=O)O)CC[C@@H]1C)[C@H]1O[C@]2(C=C[C@H](n3cc(-c4ccc(-c5ccccc5)cc4)nn3)[C@]3(CC[C@@](C)([C@H]4CC[C@](O)(CC)[C@H](C)O4)O3)O2)[C@H](C)C[C@@H]1C | – | 50 | 0.33 | 1.29 | – | – | – | –
CC[C@@H](C(=O)[C@@H](C)[C@@H](O)[C@H](C)[C@@H]1O[C@@H]([C@@H](CC)C(=O)O)CC[C@@H]1C)[C@H]1O[C@]2(C=C[C@H](n3cc(COC(C(F)(F)F)(C(F)(F)F)C(F)(F)F)nn3)[C@]3(CC[C@@](C)([C@H]4CC[C@](O)(CC)[C@H](C)O4)O3)O2)[C@H](C)C[C@@H]1C | – | 16.6 | 0.29 | 0.44 | – | – | – | –
CC[C@@H](C(=O)[C@@H](C)[C@@H](O)[C@H](C)[C@@H]1O[C@@H]([C@@H](CC)C(=O)O)CC[C@@H]1C)[C@H]1O[C@]2(C=C[C@H](OC(C)=O)[C@]3(CC[C@@](C)([C@H]4CC[C@](O)(CC)[C@H](C)O4)O3)O2)[C@H](C)C[C@@H]1C | – | – | – | – | 0.8 | 1.96 | – | 0.94
CC[C@@H](C(=O)[C@@H](C)[C@@H](O)[C@H](C)[C@@H]1O[C@@H]([C@@H](CC)C(=O)O)CC[C@@H]1C)[C@H]1O[C@]2(C=C[C@H](OC(=O)CC(C)C)[C@]3(CC[C@@](C)([C@H]4CC[C@](O)(CC)[C@H](C)O4)O3)O2)[C@H](C)C[C@@H]1C | – | – | – | – | 0.89 | 2.78 | – | 0.86
CC[C@@H](C(=O)[C@@H](C)[C@@H](O)[C@H](C)[C@@H]1O[C@@H]([C@@H](CC)C(=O)O)CC[C@@H]1C)[C@H]1O[C@]2(C=C[C@H](n3cc(-c4ccc(C(C)(C)C)cc4)nn3)[C@]3(CC[C@@](C)([C@H]4CC[C@](O)(CC)[C@H](C)O4)O3)O2)[C@H](C)C[C@@H]1C | – | 18.9 | 2.01 | 1.82 | – | – | – | –
CC[C@@H](C(=O)[C@@H](C)[C@@H](O)[C@H](C)[C@@H]1O[C@@H]([C@@H](CC)C(=O)O)CC[C@@H]1C)[C@H]1O[C@]2(C=C[C@H](n3cc(-c4ccccn4)nn3)[C@]3(CC[C@@](C)([C@H]4CC[C@](O)(CC)[C@H](C)O4)O3)O2)[C@H](C)C[C@@H]1C | – | 15.7 | 0.61 | 3.31 | – | – | – | –

Further lines, with some results ahead:

IC50 (MCF7) [µM] | IC50 (U-87 MG) [µM] | IC50 (HeLa) [µM] | IC50 (Caco-2) [µM] | IC50 (HT-29) [µM] | IC50 (MDA-MB-231) [µM] | Compound | IC50 (JIMT-1) [µM] | IC50 (HGC-27) [µM]
– | – | – | – | 0.84 | 1.89 | CCC(=O)O[C@H]1C=C[C@]2(O[C@H]([C@@H](CC)C(=O)[C@@H](C)[C@@H](O)[C@H](C)[C@@H]3O[C@@H]([C@@H](CC)C(=O)O)CC[C@@H]3C)[C@@H](C)C[C@H]2C)O[C@@]12CC[C@@](C)([C@H]1CC[C@](O)(CC)[C@H](C)O1)O2 | – | 0.89
– | – | – | – | 0.18 | 0.79 | CC[C@@H](C(=O)[C@@H](C)[C@@H](O)[C@H](C)[C@@H]1O[C@@H]([C@@H](CC)C(=O)O)CC[C@@H]1C)[C@H]1O[C@]2(C=C[C@H](OC(=O)c3ccccc3)[C@]3(CC[C@@](C)([C@H]4CC[C@](O)(CC)[C@H](C)O4)O3)O2)[C@H](C)C[C@@H]1C | – | 0.24
– | – | – | – | 0.16 | 0.79 | CC[C@@H](C(=O)[C@@H](C)[C@@H](O)[C@H](C)[C@@H]1O[C@@H]([C@@H](CC)C(=O)O)CC[C@@H]1C)[C@H]1O[C@]2(C=C[C@H](OC(=O)c3ccc(F)cc3)[C@]3(CC[C@@](C)([C@H]4CC[C@](O)(CC)[C@H](C)O4)O3)O2)[C@H](C)C[C@@H]1C | – | 0.28

From ChEMBL document CHEMBL4316586, “A comprehensive review of salinomycin derivatives as potent anticancer and anti-CSCs agents” (Eur J Med Chem, 2019)
